Experiment: xn = mol fraction of the nth substance listed
Conditions: 101 kPa, Liquid; for speed of sound: Sing-around technique in a fixed-path interferometer

Cc1cccc(C)c1 [1,3-dimethylbenzene] + COC(C)(C)C
Conditions	mass density [kg/m3]	speed of sound [m/s]
305.65 K, x2 = 0	853.441	–
305.65 K, x2 = 0.047	848.1	–
305.65 K, x2 = 0.115	840.172	–
305.65 K, x2 = 0.212	828.758	–
305.65 K, x2 = 0.304	817.815	–
305.65 K, x2 = 0.399	806.139	–
305.65 K, x2 = 0.5	793.525	–
305.65 K, x2 = 0.601	780.692	–
305.65 K, x2 = 0.651	774.141	–
305.65 K, x2 = 0.794	755.009	–
305.65 K, x2 = 0.898	740.889	–
305.65 K, x2 = 0.954	733.146	–
308.15 K, x2 = 0	851.282	1279.8
308.15 K, x2 = 0.047	845.927	1267.6
308.15 K, x2 = 0.115	837.974	1249.3
308.15 K, x2 = 0.212	826.519	1222.5
308.15 K, x2 = 0.304	815.538	1197.2
308.15 K, x2 = 0.399	803.818	1170.3
308.15 K, x2 = 0.5	791.157	1141.6
308.15 K, x2 = 0.601	778.273	1112
308.15 K, x2 = 0.651	771.692	1096.4
308.15 K, x2 = 0.794	752.457	1053.3
308.15 K, x2 = 0.898	738.286	1021.4
308.15 K, x2 = 0.954	730.505	1004.8
310.65 K, x2 = 0	849.122	1269.6
310.65 K, x2 = 0.047	843.75	1257.3
310.65 K, x2 = 0.115	835.768	1239.1
310.65 K, x2 = 0.212	824.276	1212.1
310.65 K, x2 = 0.304	813.255	1186.8
310.65 K, x2 = 0.399	801.494	1159.8
310.65 K, x2 = 0.5	788.781	1130.9
310.65 K, x2 = 0.601	775.847	1101.1
310.65 K, x2 = 0.651	769.237	1085.5
310.65 K, x2 = 0.794	749.912	1042.3
310.65 K, x2 = 0.898	735.671	1010.1
310.65 K, x2 = 0.954	727.852	993.4
313.15 K, x2 = 0	846.958	1259.5
313.15 K, x2 = 0.047	841.566	1247.2
313.15 K, x2 = 0.115	833.56	1228.8
313.15 K, x2 = 0.212	822.027	1201.8
313.15 K, x2 = 0.304	810.966	1176.3
313.15 K, x2 = 0.399	799.161	1149.3
313.15 K, x2 = 0.5	786.398	1120.3
313.15 K, x2 = 0.601	773.412	1090.2
313.15 K, x2 = 0.651	766.771	1074.7
313.15 K, x2 = 0.794	747.356	1031.2
313.15 K, x2 = 0.898	733.042	998.84
313.15 K, x2 = 0.954	725.183	981.87
315.65 K, x2 = 0	844.792	1249.3
315.65 K, x2 = 0.047	839.381	1237
315.65 K, x2 = 0.115	831.348	1218.6
315.65 K, x2 = 0.212	819.775	1191.5
315.65 K, x2 = 0.304	808.673	1165.9
315.65 K, x2 = 0.399	796.825	1138.8
315.65 K, x2 = 0.5	784.01	1109.7
315.65 K, x2 = 0.601	770.967	1079.5
315.65 K, x2 = 0.651	764.3	1063.9
315.65 K, x2 = 0.794	744.791	1020.2
315.65 K, x2 = 0.898	730.402	987.66
315.65 K, x2 = 0.954	722.504	970.42
318.15 K, x2 = 0	842.622	1239.3
318.15 K, x2 = 0.047	837.193	1226.9
318.15 K, x2 = 0.115	829.131	1208.5
318.15 K, x2 = 0.212	817.518	1181.2
318.15 K, x2 = 0.304	806.375	1155.6
318.15 K, x2 = 0.399	794.481	1128.3
318.15 K, x2 = 0.5	781.614	1099.1
318.15 K, x2 = 0.601	768.518	1068.8
318.15 K, x2 = 0.651	761.816	1053.1
318.15 K, x2 = 0.794	742.213	1009.3
318.15 K, x2 = 0.898	727.749	976.53
318.15 K, x2 = 0.954	719.811	959.09
320.65 K, x2 = 0	840.452	1229.3
320.65 K, x2 = 0.047	835	1216.9
320.65 K, x2 = 0.115	826.912	1198.3
320.65 K, x2 = 0.212	815.256	1171
320.65 K, x2 = 0.304	804.075	1145.3
320.65 K, x2 = 0.399	792.132	1118
320.65 K, x2 = 0.5	779.21	1088.6
320.65 K, x2 = 0.601	766.061	1058.2
320.65 K, x2 = 0.651	759.325	1042.4
320.65 K, x2 = 0.794	739.628	998.4
320.65 K, x2 = 0.898	725.085	965.42
320.65 K, x2 = 0.954	717.105	947.81
323.15 K, x2 = 0	838.289	1219.5
323.15 K, x2 = 0.047	832.812	1207
323.15 K, x2 = 0.115	824.696	1188.4
323.15 K, x2 = 0.212	813.002	1161.1
323.15 K, x2 = 0.304	801.776	1135.1
323.15 K, x2 = 0.399	789.785	1107.7
323.15 K, x2 = 0.5	776.809	1078.2
323.15 K, x2 = 0.601	763.606	1047.7
323.15 K, x2 = 0.651	756.839	1031.9
323.15 K, x2 = 0.794	737.044	987.59
323.15 K, x2 = 0.898	722.414	954.46
323.15 K, x2 = 0.954	714.398	936.68
